Common to all, as to type: cell-based
The subject of test [1] is Escherichia coli (10536 strain). Nature of the test: Antimicrobial efficacy, 15 seconds contact suspension test with plate count (Examples 1 and 3). Particulars: for MBC (minimum biocidal concentration): Example 1 medium, lowest concentration giving complete kill after 15 seconds, upper boundary. On the procedure: The efficacies of antimicrobial agents can be usefully compared by determining the Minimum Biocidal Concentration (MBC). The MBC is defined as the lowest absolute concentration of the particular active that provides complete kill (zero bacterial growth).
Antimicrobial efficacy is tested against a representative pathogenic bacterial organism, Gram negative Escherichia coli. Concentrations of actives are expressed in terms of the percentage weight/volume (% w/v) throughout Example 1.
An overnight culture of Escherichia coli (10536 strain) was prepared in 50 ml total volume of TSB broth, grown for ca. 18 hrs at 37° C. and shaken at 150 rpm. 1 ml of this overnight E. coli culture was transferred to 50 ml of fresh TSB broth and incubated at 37° C. at 150 rpm for ca. 4 hours. This culture was separated into equal volumes and centrifuged at 4000 rpm for 15 minutes, washed with sterile saline (0.85% NaCl), centrifuged once more and re-suspended in saline to give a final concentration of 0.8 OD620 equivalent to about 10^8 cells per milliliter for this particular organism. Here, OD620 indicates the absorbance of a sample in a cuvette of 1.0 cm path length at a wavelength of 620 nm. This bacterial stock was used for assaying against antimicrobial actives (in triplicate).
The following assay describes the testing of 8 materials using 6 dilutions across half of a 96-well micro titre plate (MTP). Using this approach it is possible to assay 16 actives (without replicates) with one full dilution plate, replicating this set up in two halves of the plate columns, 1-6 and 7-12.
1M solutions of the test actives were prepared in dimethylsulphoxide (DMSO).
Aliquots (270 μl) of the materials at 1.11 times the final concentration were dispensed into the wells of the MTP along one column (A1-H1). This MTP was labelled as the “Screening plate”.
In another MTP, labelled as the “Dilution plate”, 270 μl of D/E neutralising solution from DIFCO Composition was added to column 1. The composition of the neutralising solution was as follows: pancreatic digest of casein, 5.0 g/L; Yeast Extract, 2.5 g/L; Dextrose, 10 g/L, sodium thioglycollate, 1.0 g/L, sodium thiosulphate, 6.0 g/L; sodium bisulphite, 2.5 g/L; Polysorbate 80, 5.0 g/L; lecithin 7.0 g/L; bromocresol purple, 0.02 g/L with a pH in the range 7.6±0.2.
270 μl of tryptone diluent solution was added to all the remaining wells of the Dilution MTP (columns 2-6). […]

Test [2] deals with Escherichia coli (E. coli—ATCC #10536). Nature of the test: High resolution MBC synergy assay, microtiter plate, phosphate buffer containing 35% dipropylene glycol (Example 2). Particulars: for ΣFBC: for the Ca/Cb pair of the same table line; for MBC of component alone (MBCA, MBCB): complete kill in 15 seconds, 35% DPG phosphate buffer. On the procedure: The materials were sourced in the same way as for Example 1. Synergy tests were conducted using standard microtiter plate assays with phosphate buffer containing 35% dipropylene glycol (DPG). […] The MBC plate was inoculated one column at a time with the test microorganism. An aliquot of the inoculated well was transferred at 15 seconds to a plate containing a neutralizing agent (D/E Neutralizing Broth), mixed and held for 5 minutes before being transferred to a growth plate containing trypticase soy broth (TSB). The TSB plate was incubated at 37° C. and read for the presence/absence of growth at 24 hours. […] This microorganism is representative of natural contaminants in many consumer and industrial applications.

Test [3] shares this test system. Nature of the test: Automated assessment of efficacy in surfactant base, DeltaOD in D/E quench (Example 4). Particulars: for MBC: in 2.85% sodium cocoyl glycinate + 1.85% sodium lauroamphoacetate solution at pH 10; for 15 second bactericidal efficacy in combination with thymol: in combination with thymol at concentrations lower than their MBC, same surfactant formulation, all 4 or 3 replicates, respectively. How it is done:
In these examples, the efficacy of combinations of thymol and propen-2-yl-methyl-cyclohexanols of the invention were tested in a surfactant cleansing formulation comprising 2.85% sodium cocoyl glycinate and 1.85% sodium lauroamphoacetate. This corresponds to a 50% in use dilution with water of a typical neat formulation containing 5.7% cocoyl glycinate and 3.7% % sodium lauroamphoacetate during hand washing. Solutions were prepared such that the concentrations of the surfactant components and test actives were 1.1 times the final desired concentration in order to allow for dilution with the bacterial inoculum in the test. The solutions were manually adjusted to pH 10.0 by dropwise addition of sodium hydroxide solution, as measured with a pH meter at ambient temperature. Solutions of the thymol and/or propen-2-yl-methyl-cyclohexanols of the invention were prepared at a maximum of 24 hours before testing. The same thymol and propen-2-yl-methyl-cyclohexanols were tested as in Example 1.
The efficacy of the combinations of the present invention was determined against the same bacterium as in Example 1, Escherichia coli (E. coli—ATCC #10536), at a concentration of approximately 1×10^8 bacteria per mL.
Tests were conducted using standard microtiter plate assays using an automated liquid handling system. 270 μl of the surfactant test solution was pipetted into each well of the microtitre plate (Nunc F Gamma Irradiated 96F untreated microtitre plates of clear polystyrene) and 30 μl of the bacterial suspension was then added. After exactly 15 seconds of bacterial exposure, a 30 μl volume of bacterial cells was withdrawn and transferred to 270 μl of D/E quench solution. After 5 minutes in the D/E quench, the optical density (OD) was measured for each plate in turn at two specific wavelengths (450 nm and 590 nm). These provide a dual check of antimicrobial activity, as the OD450 reading is specific for the yellow colour of D/E quench when bacterial growth is observed, whereas OD590 is specific for the initial purple colour of the D/E quench which is retained if no bacterial growth is observed. […] Delta OD values were calculated by subtracting […] at time=16 hours. […] To identify antibacterially efficacious systems (those preventing appreciable bacterial growth after incubation), the following threshold changes in OD readings have been adopted: if (1). OD450 increases by less than 0.2 absorbance unit (AU) on incubation and (2). […] The number of replicate wells showing either bacterial growth or no growth is also readily assessed by eye by following the colour change. […]
In each case, binary mixtures were assessed in the weight to weight ratio of thymol to propen-2-yl-methyl-cyclohexanols of 1:2.5.

With `C=C(C)C1CCC(C)C(O)C1` (stereo not drawn) [2-methyl-5-(propen-2-yl)-cyclohexanol], in test [1], the “MBC (minimum biocidal concentration)” value is reported as 0.3 % w/v. Moreover, in test [2] (Table 7), the ΣFBC was determined as 1.00. Further, the “MBC of component alone (MBCA, MBCB)” value in test [2] (Table 7 series) was 0.5 weight %. Also, in test [3], the MBC is on record as >0.5 % w/v and the “15 second bactericidal efficacy in combination with thymol” value is “complete kill”.

Take `C=C(C)[C@@H]1CC[C@@H](C)C[C@H]1O` [5-methyl-2-(propen-2-yl)-cyclohexanol, (1R,2S,5R)-5-methyl-2-(propen-2-yl)-cyclohexanol]: the “MBC (minimum biocidal concentration)” value in test [1] was 0.3 % w/v. In test [2] (Table 8), the ΣFBC is given as 1.00. Moreover, the “MBC of component alone (MBCA, MBCB)” value in test [2] (Table 8 series) is 0.5 weight %. Further, in test [3], the MBC is given as >0.5 % w/v and the “15 second bactericidal efficacy in combination with thymol” value is “complete kill”.

In test [1] (Example 3, protocol of Example 1), `C=C(C)[C@@H]1CC[C@@H](C)[C@@H](O)C1` [(1S,2R,5R)-2-methyl-5-(1-methylethenyl)-cyclohexanol] displayed an MBC of 0.3 % w/v.

Take `Cc1ccc(C(C)C)c(O)c1` [thymol, 2-isopropyl-5-methylphenol, reference compound]: the “reduction of thymol concentration required for complete kill” value in test [1] (combination with […] w/v 2-methyl-5-(propen-2-yl)-cyclohexanol versus thymol in isolation) was determined as 4 fold. The ΣFBC in test [2] (Table 7) and in test [2] (Table 8) was 1.00 throughout. Besides, the “MBC of component alone (MBCA, MBCB)” value in test [2] (Table 7 series) is recorded as 0.2 weight %.

These data come from patent US9339477B2, “Antimicrobial composition” (Rohm and Haas Company, priority 2011, dated 2016).
